Source: patent US6867207B2, “IL-5 inhibiting 6-azauracil derivatives” (Janssen Pharmaceutica N.V., priority 1997, dated 2005)

What follows are molecules tested on IL-5 production (assay: In vitro inhibition of IL-5 production in human blood (phytohemagglutinin-stimulated whole blood, ELISA)). Details: test dose 1×10^−5 M (values marked *), 48 hours, read-out: % inh. (percentage inhibition of IL-5 production), marked with *.
Type: cell-based
Procedure: In Vitro Inhibition of IL-5 Production in Human Blood
Human Whole Blood Stimulation
Peripheral blood from healthy male donors was drawn into heparinized syringes (12.5 U heparin/ml). Blood samples were three-fold diluted in RMPI 1640 medium (Life Technologies, Belgium) supplemented with 2 mM L-glutamine, 100 U/ml penicillin and 100 μg/ml streptomycin, and 300 μl fractions were distributed in 24-well multidisc plates. Blood samples were preincubated (60 minutes at 37° C.) in a humidified 6% CO2-atmosphere with 100 μl of drug solvent (final concentration 0.02% dimethylsulfoxide in RPMI 1640) or with 100 μl of an appropriate dose of test compound before being stimulated by the addition of 100 μl of phytohemagglutinin HA17 (Murex, UK) at a final concentration of 2 μg/ml. After 48 hours, cell-free supernatant fluids were collected by centrifugation and stored at −70° C. until tested for the presence of IL-5.
IL-5 measurements were conducted as described in Van Wauwe et al. (1996, Inflamm Res, 45, 357-363) on page 358 using ELISA.
Table 9 lists the percentage inhibition of IL-5 production (column “% inh”) at a test dose of 1×10^−6 M, or in case the percentage inhibition is marked with an “*” 1×10^−5 M, the compounds of the present invention.
For `O=c1cnn(-c2ccc(C(NCc3ncc[nH]3)c3ccc(Cl)cc3)c(Cl)c2)c(=O)[nH]1` (racemic) [Compound 50, (±)-2-[3-chloro-4-[(4-chlorophenyl)[(1H-imidazol-2-ylmethyl)amino]methyl]phenyl]-1,2,4-triazine-3,5(2H,4H)-dione], the inhibition at 10 µM was 20%.

Same assay, conditions: test dose 1×10^−6 M, 48 hours
`O=C(O)Cc1sc(C(c2ccc(Cl)cc2)c2c(Cl)cc(-n3ncc(=O)[nH]c3=O)cc2Cl)nc1-c1ccccc1` (racemic) [Comp 300] was tested, and the “% inh. (percentage inhibition of IL-5 production)” value was 27%.
`CNC(=O)Cc1sc(C(c2ccc(Cl)cc2)c2c(Cl)cc(-n3ncc(=O)[nH]c3=O)cc2Cl)nc1-c1ccccc1` (racemic) [Comp 301] was tested, and the “% inh. (percentage inhibition of IL-5 production)” value was 33%.
With `CN1CCN(Cc2sc(C(c3ccc(Cl)cc3)c3c(Cl)cc(-n4ncc(=O)[nH]c4=O)cc3Cl)nc2-c2ccccc2)CC1` (racemic) [Comp 302] the “% inh. (percentage inhibition of IL-5 production)” value was 87%.
With `CN1CCN(C(=O)c2sc(C(c3ccc(Cl)cc3)c3c(Cl)cc(-n4ncc(=O)[nH]c4=O)cc3Cl)nc2-c2ccccc2)CC1` (racemic) [Comp 304] the “% inh. (percentage inhibition of IL-5 production)” value was 35%.
In the case of `O=C(NC1CCN(Cc2ccccc2)CC1)c1sc(C(c2ccc(Cl)cc2)c2c(Cl)cc(-n3ncc(=O)[nH]c3=O)cc2Cl)nc1-c1ccccc1` (racemic) [Comp 305], the “% inh. (percentage inhibition of IL-5 production)” value is reported as 51%.
In the case of `O=C(c1sc(C(c2ccc(Cl)cc2)c2c(Cl)cc(-n3ncc(=O)[nH]c3=O)cc2Cl)nc1-c1ccccc1)N1CCOCC1` (racemic) [Comp 306], the “% inh. (percentage inhibition of IL-5 production)” value is reported as 92%.
For `COCCNC(=O)c1sc(C(c2ccc(Cl)cc2)c2c(Cl)cc(-n3ncc(=O)[nH]c3=O)cc2Cl)nc1-c1ccccc1` (racemic) [Comp 307], the “% inh. (percentage inhibition of IL-5 production)” value was 78%.
For `O=c1cnn(-c2cc(Cl)c(C(c3ccc(Cl)cc3)c3nc(-c4ccccc4)c(COC4CCCCC4)s3)c(Cl)c2)c(=O)[nH]1` (racemic) [Comp 310], the “% inh. (percentage inhibition of IL-5 production)” value was 79%.
`CN(C)CCN(C)Cc1sc(C(c2ccc(Cl)cc2)c2c(Cl)cc(-n3ncc(=O)[nH]c3=O)cc2Cl)nc1-c1ccccc1` (racemic) [Comp 311] was tested, and the “% inh. (percentage inhibition of IL-5 production)” value was 64%.
In the case of `CN(C)CCNC(=O)c1sc(C(c2ccc(Cl)cc2)c2c(Cl)cc(-n3ncc(=O)[nH]c3=O)cc2Cl)nc1-c1ccccc1.O` (racemic) [Comp 312], the “% inh. (percentage inhibition of IL-5 production)” value is reported as 57%.
`COC1CCN(Cc2sc(C(c3ccc(Cl)cc3)c3c(Cl)cc(-n4ncc(=O)[nH]c4=O)cc3Cl)nc2-c2ccccc2)CC1.Cl.O` (racemic) [Comp 314] was tested, and the “% inh. (percentage inhibition of IL-5 production)” value was 81%.
In the case of `COCCNCc1sc(C(c2ccc(Cl)cc2)c2c(Cl)cc(-n3ncc(=O)[nH]c3=O)cc2Cl)nc1-c1ccccc1` (racemic) [Comp 316], the “% inh. (percentage inhibition of IL-5 production)” value is reported as 85%.
In the case of `CN(C)CCNC(=O)Cc1sc(C(c2ccc(Cl)cc2)c2c(Cl)cc(-n3ncc(=O)[nH]c3=O)cc2Cl)nc1-c1ccccc1` (racemic) [Comp 317], the “% inh. (percentage inhibition of IL-5 production)” value is reported as 67%.
With `COCCNC(=O)Cc1sc(C(c2ccc(Cl)cc2)c2c(Cl)cc(-n3ncc(=O)[nH]c3=O)cc2Cl)nc1-c1ccccc1` (racemic) [Comp 320] the “% inh. (percentage inhibition of IL-5 production)” value was 94%.
`O=c1cnn(-c2cc(Cl)c(C(c3ccc(Cl)cc3)c3nc(-c4ccccc4)c(CN4CCC(N5CCCCC5)CC4)s3)c(Cl)c2)c(=O)[nH]1` (racemic) [Comp 321] was tested, and the “% inh. (percentage inhibition of IL-5 production)” value was 92%.
`CN1CCC(N(C)Cc2sc(C(c3ccc(Cl)cc3)c3c(Cl)cc(-n4ncc(=O)[nH]c4=O)cc3Cl)nc2-c2ccccc2)CC1` (racemic) [Comp 322] was tested, and the “% inh. (percentage inhibition of IL-5 production)” value was 96%.
In the case of `O=C(Cc1sc(C(c2ccc(Cl)cc2)c2c(Cl)cc(-n3ncc(=O)[nH]c3=O)cc2Cl)nc1-c1ccccc1)NC1CCN(Cc2ccccc2)CC1` (racemic) [Comp 326], the “% inh. (percentage inhibition of IL-5 production)” value is reported as 89%.
In the case of `Cc1sc(C(c2ccc(Cl)cc2)c2c(Br)cc(-n3ncc(=O)[nH]c3=O)cc2Br)nc1-c1ccccc1` (racemic) [Comp 330], the “% inh. (percentage inhibition of IL-5 production)” value is reported as 94%.
In the case of `CN(CCc1ccccc1)Cc1sc(C(c2ccc(Cl)cc2)c2c(Cl)cc(-n3ncc(=O)[nH]c3=O)cc2Cl)nc1-c1ccccc1` (racemic) [Comp 332], the “% inh. (percentage inhibition of IL-5 production)” value is reported as 86%.
For `O=C(NCc1sc(C(c2ccc(Cl)cc2)c2c(Cl)cc(-n3ncc(=O)[nH]c3=O)cc2Cl)nc1-c1ccccc1)Nc1ccc(Cl)cc1` (racemic) [Comp 333], the “% inh. (percentage inhibition of IL-5 production)” value was 61%.
For `CN(Cc1sc(C(c2ccc(Cl)cc2)c2c(Cl)cc(-n3ncc(=O)[nH]c3=O)cc2Cl)nc1-c1ccccc1)C1CCCCC1` (racemic) [Comp 334], the “% inh. (percentage inhibition of IL-5 production)” value was 75%.
For `CN(C)CCN(C)C(=O)Cc1sc(C(c2ccc(Cl)cc2)c2c(Cl)cc(-n3ncc(=O)[nH]c3=O)cc2Cl)nc1-c1ccccc1` (racemic) [Comp 335], the “% inh. (percentage inhibition of IL-5 production)” value was 52%.
With `O=c1cnn(-c2cc(Cl)c(C(c3ccc(Cl)cc3)c3nc(-c4ccccc4)c(CNS(=O)(=O)Cc4ccccc4)s3)c(Cl)c2)c(=O)[nH]1` (racemic) [Comp 336] the “% inh. (percentage inhibition of IL-5 production)” value was 88%.
In the case of `O=c1cnn(-c2cc(Cl)c(C(c3ccc(Cl)cc3)c3nc(-c4cccc(F)c4F)cs3)c(Cl)c2)c(=O)[nH]1` (racemic) [Comp 337], the “% inh. (percentage inhibition of IL-5 production)” value is reported as 96%.
In the case of `Cc1cc(NC(c2ccc(Cl)cc2)c2ccc(-n3ncc(=O)[nH]c3=O)cc2Cl)no1` (racemic) [Compound 40], the “% inh. (percentage inhibition of IL-5 production)” value is reported as 31%.
`COCCNC(c1ccc(Cl)cc1)c1ccc(-n2ncc(=O)[nH]c2=O)cc1Cl` (racemic) [Compound 41] was tested, and the “% inh. (percentage inhibition of IL-5 production)” value was 11%.
`COc1cc(C)nc(NC(c2ccc(Cl)cc2)c2ccc(-n3ncc(=O)[nH]c3=O)cc2Cl)n1` (racemic) [Compound 42] was tested, and the “% inh. (percentage inhibition of IL-5 production)” value was 57%.
With `Cl.O=c1cnn(-c2ccc(C(NCCc3ccco3)c3ccc(Cl)cc3)c(Cl)c2)c(=O)[nH]1` (racemic) [Compound 43] the “% inh. (percentage inhibition of IL-5 production)” value was 37%.
For `O=c1cnn(-c2ccc(C(Nc3nccs3)c3ccc(Cl)cc3)c(Cl)c2)c(=O)[nH]1` (racemic) [Compound 44], the “% inh. (percentage inhibition of IL-5 production)” value was 40%.
For `O=c1cnn(-c2ccc(C(NC3CCCCC3)c3ccc(Cl)cc3)c(Cl)c2)c(=O)[nH]1` (racemic) [Compound 46], the “% inh. (percentage inhibition of IL-5 production)” value was 64%.
With `O=C(NC(c1ccc(Cl)cc1)c1ccc(-n2ncc(=O)[nH]c2=O)cc1Cl)c1ccccc1` (racemic) [Compound 47, (±)-N-[[2-chloro-4-(4,5-dihydro-3,5-dioxo-1,2,4-triazin-3(2H)-yl)phenyl](4-chlorophenyl)methyl]benzamide] the “% inh. (percentage inhibition of IL-5 production)” value was 33%.
In the case of `CN1CCC(NC(c2ccc(Cl)cc2)c2ccc(-n3ncc(=O)[nH]c3=O)cc2Cl)CC1` (racemic) [Compound 48, (±)-2-[3-chloro-4-[(4-chlorophenyl)[(1-methyl)-4-piperidinyl)amino]methyl]phenyl]-1,2,4-triazine-3,5(2H,4H)-dione], the “% inh. (percentage inhibition of IL-5 production)” value is reported as 29%.

Same assay, conditions: test dose 1×10^−6 M, 48 hours, read-out: % inh. (percentage inhibition of IL-5 production)
`NC(c1ccc(Cl)cc1)(c1nccs1)c1ccc(-n2ncc(=O)[nH]c2=O)cc1Cl` (racemic) [Compound 35, (±)-2-[3-chloro-4-[amino-(4-chlorophenyl)-2-thiazolylmethyl]phenyl]-1,2,4-triazine-3,5(2H,4H)-dione] was tested, and the inhibition at 1 µM was 56%.
`COC(c1ccc(Cl)cc1)(c1nccs1)c1ccc(-n2ncc(=O)[nH]c2=O)cc1Cl` (racemic) [Compound 37, (±)-2-[3-chloro-4-[(4-chlorophenyl)-methoxy(2-thiazolyl)methyl]phenyl]-1,2,4-triazine-3,5(2H,4H)-dione] was tested, and the inhibition at 1 µM was 61%.
With `O=c1cnn(-c2cc(Cl)c(C(c3ccc(Cl)cc3)c3nc(-c4ccccc4)cs3)c(Cl)c2)c(=O)[nH]1` (racemic) [Compound 38, (±)-2-[3,5-dichloro-4-[(4-chlorophenyl)(4-phenyl-2-thiazolyl)methyl]phenyl]-1,2,4-triazine-3,5(2H,4H)-dione] the inhibition at 1 µM was 92%.
For `O=c1cnn(-c2cc(Cl)c(C(c3ccc(Cl)cc3)c3nccs3)c(Cl)c2)c(=O)[nH]1` (racemic) [Compound 39, (±)-2-[3,5-dichloro-4-[(4-chlorophenyl)-2-thiazolylmethyl]-phenyl]-1,2,4-triazine-3,5(2H,4H)-dione], the inhibition at 1 µM was 68%.
`O=c1cnn(-c2ccc(C(Nc3ncccn3)c3ccc(Cl)cc3)c(Cl)c2)c(=O)[nH]1` (racemic) [Compound 49, (±)-2-[3-chloro-4-[(4-chlorophenyl)(2-pyrimidinylamino)methyl]phenyl]-1,2,4-triazine-3,5(2H,4H)-dione] gave an inhibition at 1 µM of 61%.
`O=c1cnn(-c2ccc(C(NCCO)c3ccc(Cl)cc3)c(Cl)c2)c(=O)[nH]1` (racemic) [Compound 51, (±)-2-[3-chloro-4-[(4-chlorophenyl)[(2-hydroxyethyl)amino]methyl]phenyl]-1,2,4-triazin-3,5(2H,4H)-dione] showed an inhibition at 1 µM of 10%.
